Assay type in all cases: functional, cell-based
One experiment has as its system SNB-19. Put plainly: Anticancer activity against human SNB-19 cells assessed as reduction in cell proliferation incubated for 72 hrs by WST-1 assay. The following applies: SNB-19, 72 h.
In the next experiment the test system is Caco-2. Description: Cytotoxicity against human Caco-2 cells assessed as reduction in cell proliferation incubated for 72 hrs by WST-1 assay. The following applies: Caco-2, 72 h.
The next experiment relates to A549. Put plainly: Antiproliferative activity against human A549 cells assessed as reduction in cell viability incubated for 72 hrs by WST-1 assay. The following applies: A549, 72 h.
For another experiment, the system named is MDA-MB-231. Description: Antiproliferative activity against human MDA-MB-231 cells assessed as reduction in cell viability incubated for 72 hrs by WST-1 assay. The following applies: MDA-MB-231, 72 h.
In another experiment the test system is NHDF. Put plainly: Cytotoxicity against human NHDF cells assessed as reduction in cell viability incubated for 72 hrs by WST-1 assay.

`Clc1ccc(Cn2cc(CN3c4cccnc4Sc4cccnc43)nn2)cc1`: the IC50 in the experiment on SNB-19 was 4660 nM; in the experiment with Caco-2, 250 nM; with A549, 250 nM; in the experiment with MDA-MB-231 it was 510 nM; in the experiment with NHDF, more than 100000 nM.

The record behind these values is ChEMBL document CHEMBL5344416, “Phenothiazines as anti-cancer agents: SAR overview and synthetic strategies” (Eur J Med Chem, 2023).
